Reference: patent publication US6670395B1, “Prophylactic and therapeutic treatment of skin sensitization and irritation” (Bristol-Myers Squibb Company, priority 1996, dated 2003)

Experiments:
Balb/c female mice [1] = test: Irritation induced by retinoic acid: mouse ear thickness; format: in vivo
Method: (§1) Thirty (30) Balb/c female mice were obtained from Sprague Dawley Labs. A 1.0% (w/v) solution of PAME was prepared in a gel formulation (2.5% HPMC in 75% ethanol). A second solution containing a 2:1 volume ratio of acetone to ethanol was also prepared. A 20% (w/v) solution of captopril and the second solution (sufficient to elicit a strong irritant response), was also prepared. In addition a 1.0% HPMC solution was prepared as a placebo.
(§2) The Group I mice (10 mice) received the second solution and then 10 minutes later the HPMC solution. The positive control mice (10) designated as Group II received the captopril solution to the right ear followed by the HPMC solution. The experimental group of mice (10) (Group III) received the captopril solution to the right ear followed ten minutes later by the PAME solution.
(§3) The thickness of the ears was measured after 2 hours when maximum redness and swelling from the captopril solution were observed.
The procedures of […] were repeated except that captopril was replaced by retinoic acid in an amount of 1% (w/v) in a 1% HPMC gel.

Balb/c mice [2] = test: Counter sensitizer to oxazolone: ear swelling after challenge of sensitized mice; format: in vivo
Method: (§4) A 1.0% (w/v) solution of phenoxyacetic acid methyl ester (PAME, a compound of Formula I wherein R is methyl) was prepared in a gel formulation (2.5% HPMC in 75% ethanol). The same gel formulation served as a negative control. For sensitization, a 1% (w/v) solution of dinitrochlorobenzene (DNCB) was prepared in acetone.
(§5) Twenty-four (24) Balb/c mice had their back skin shaved. The mice were divided into three equal groups. The first group acted as a negative control and received on day 0 an application of acetone. The second and third groups each received 20 μL of 1% DNCB in acetone on the exposed back skin.
All three groups were challenged on the right ear with 20μL of 1% DNCB in acetone five (5) days after sensitization. Then, 10 minutes after challenge, the first and second groups received 100 μL of 1% HPMC in 75% ethanol. The third group received 1% of PAME in the HPMC gel.
(§6) Adverse reaction to the challenge with DNCB was determined by measuring the thickness of the mice ears before and after challenge to determine the amount of swelling, and then comparing the degree of swelling for mice treated in accordance with the invention (Group III) with Groups I and Groups II.
The procedures of Example 1 were repeated except that the mice were sensitized with a 1% (w/v) solution of oxazolone.

Balb/c female mice [3] = test: Irritation induced by phorbol myristate: mouse ear thickness; settings: in vivo
Method: as §1, §2, §3
The procedures of Example 4 were repeated except that captopril was replaced with phorbol myristate (12-tetradecanyol-13-phorbol myristic acid) in an amount of 0.1% (w/v) in a 1% HPMC gel. Phenoxyacetic acid was also tested in this protocol.

Balb/c female mice [4] = test: Irritation induced by dinitrochlorobenzene: mouse ear thickness; format: in vivo
Method: as §1, §2, §3
The procedures of Example 4 were repeated except that captopril was replaced with dinitrochlorobenzene (DNCB) in an amount of 2.0% (w/v) in a 1% HPMC gel.

Balb/c mice [5] = test: Counter sensitizer to DNCB: ear swelling after DNCB challenge of sensitized mice; format: in vivo
Method: as §4, §5
[…] Then, 10 minutes after challenge, the first and second groups received 100 μL of 1% HPMC in 75% ethanol. The third group received 1% of PAME in the HPMC gel.
as §6

Balb/c female mice [6] = test: Irritation induced by captopril: mouse ear thickness; format: in vivo
Method: as §1, §2, §3

[7] = PAME (2 mg) in HPMC gel + oxazolone (100 μg), 24 hours

| Structure (SMILES) | EAR THICKNESS (Balb/c female mice [1]; PAME + retinoic acid 1% (w/v), 2 hours) [MM × 10^−3] | % SUPPRESSION (Balb/c female mice [1]; PAME + retinoic acid, 2 hours, vs retinoic acid only) [%] | inflammation induced by retinoic acid (in words) (Balb/c female mice [1]; mouse, in vivo) | EAR SWELLING (Balb/c mice [2]; [7]) [MM × 10^−3] | EAR THICKNESS (Balb/c mice [2]; [7]) [MM × 10^−3] | % SUPPRESSION (Balb/c mice [2]; PAME (2 mg) in HPMC gel + oxazolone (100 μg), 24 hours, vs oxazolone only) [%] | adverse reactions induced by sensitization with oxazolone (in words) (Balb/c mice [2]; mouse, in vivo) | inflammation induced by contact with phorbol myristate (in words) (Balb/c female mice [3]) | EAR THICKNESS (Balb/c female mice [4]; PAME + DNCB 2.0% (w/v), 2 hours) [MM × 10^−3] | % SUPPRESSION (Balb/c female mice [4]; PAME + DNCB, 2 hours, vs DNCB only) [%] | inflammation induced by contact with DNCB (in words) (Balb/c female mice [4]; mouse, in vivo) | EAR SWELLING (Balb/c mice [5]; PAME (1 mg) in HPMC gel + DNCB (100 μg), 24 hours) [MM × 10^−3] | EAR THICKNESS (Balb/c mice [5]; PAME (1 mg) in HPMC gel + DNCB (100 μg), 24 hours, right ear) [MM × 10^−3] | % SUPPRESSION (Balb/c mice [5]; PAME (1 mg) in HPMC gel + DNCB (100 μg), 24 hours, vs DNCB only) [%] | adverse reaction of the skin induced by sensitization with DNCB (in words) (Balb/c mice [5]; administered alone, prophylactically) | EAR THICKNESS (Balb/c female mice [6]; 1.0% PAME gel 10 minutes after 20% captopril solution, 2 hours) [MM × 10^−3] | % SUPPRESSION (Balb/c female mice [6]; PAME + captopril, 2 hours, vs captopril only) | inflammation induced by contact with captopril (in words) (Balb/c female mice [6]; mouse, in vivo) |
| --- | --- | --- | --- | --- | --- | --- | --- | --- | --- | --- | --- | --- | --- | --- | --- | --- | --- | --- |
| COC(=O)COc1ccccc1 [PAME, phenoxyacetic acid methyl ester] | 237 ± 11 | 100 | suppressed inflammation | 16 | 278 ± 15 | 84 | suppressed adverse reactions | suppressed inflammation | 249 ± 8 | 100 | suppressed inflammation | 12 | 240 ± 6 | 62 | prevented an adverse reaction of the skin | 226 ± 5 | ≈93% | suppressed inflammation |
| O=C(O)COc1ccccc1 [PHENOXYACETIC ACID, Phenoxyacetic acid] |  |  |  |  |  |  |  | suppressed inflammation |  |  |  |  |  |  |  |  |  |  |
